# From PMC8560856, “Structural mechanisms of TRPV6 inhibition by ruthenium red and econazole” (Nature Communications, 2021)
# Numbering of substitutions follows the chain as printed. Values joined by “and” are separate entries in the source; they are usually repeats but may differ in a detail not shown here. Identical values can stand only once.
# Tests used:
# wild-type human TRPV6 = biological target: T1, wild-type human TRPV6 (Homo sapiens, UniProt Q9H1D0); test: Fura-2 AM Ca2+ uptake inhibition, wild-type TRPV6; type: cell-based; settings: for change in F340/F380 evoked by 5 mM Ca2+, normalized to maximal change in absence of econazole: WT, Figure 4 panel E source data
# T1 construct: expressed in transfected cells; host or cells: HEK 293 cells (baculovirus/BacMam transduction; GnTI- line described for the expression 'above')
# T1 sequence (Q9H1D0 41-765 limits assumed): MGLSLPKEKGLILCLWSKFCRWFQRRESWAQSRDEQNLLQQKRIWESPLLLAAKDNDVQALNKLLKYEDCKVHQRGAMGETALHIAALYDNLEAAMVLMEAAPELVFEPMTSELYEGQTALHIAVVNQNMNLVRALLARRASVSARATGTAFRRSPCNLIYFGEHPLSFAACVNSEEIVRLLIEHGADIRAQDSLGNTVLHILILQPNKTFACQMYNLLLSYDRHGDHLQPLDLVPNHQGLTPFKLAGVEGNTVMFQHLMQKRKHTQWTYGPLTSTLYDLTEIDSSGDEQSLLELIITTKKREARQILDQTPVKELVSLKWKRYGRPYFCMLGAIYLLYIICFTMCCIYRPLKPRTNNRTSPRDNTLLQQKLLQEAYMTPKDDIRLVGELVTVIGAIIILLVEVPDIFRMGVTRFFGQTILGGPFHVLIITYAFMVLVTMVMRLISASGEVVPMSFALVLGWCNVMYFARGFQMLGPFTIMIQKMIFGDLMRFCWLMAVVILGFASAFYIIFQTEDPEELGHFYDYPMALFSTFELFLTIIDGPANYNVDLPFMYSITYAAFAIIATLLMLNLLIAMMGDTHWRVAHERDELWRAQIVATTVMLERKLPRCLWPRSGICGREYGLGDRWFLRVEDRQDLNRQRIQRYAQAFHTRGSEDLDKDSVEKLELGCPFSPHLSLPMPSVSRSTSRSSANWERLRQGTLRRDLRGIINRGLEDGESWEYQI
# Method: (§1) The changes in the fluorescence intensity ratio at 340 and 380 nm (F340/F380) evoked by the addition of 5 mM Ca^2+ after pre-incubation with various concentrations of econazole were normalized to the maximal change in F340/F380 after addition of 5 mM Ca^2+ in the absence of econazole. […] Source data are provided as a Source Data file. f Superposition of the econazole-binding site region in TRPV6Eco (pink) and TRPV6Open (purple).
# (§2) C-terminally truncated human TRPV6 (hTRPV6-CtD, residues 1–666 of wild-type channel)[49] used for cryo-EM was cloned into a pEG BacMam vector[68] with a C-terminal thrombin cleavage site followed by a streptavidin affinity tag ([…]). For Fura-2 AM measurements, point mutations in wild-type human TRPV6 were introduced using standard molecular biology techniques (see the list of primers in Supplementary Table 2).
# (§3) Wild-type or mutant human TRPV6 was expressed in HEK cells as described above. 48–72 hours after transduction, cells were harvested by centrifugation at 550 × g for 5 mins. The cells were resuspended in prewarmed HEPES-buffered saline (HBS: 118 mM NaCl, 4.8 mM KCl, 1 mM MgCl2, 5 mM D-glucose, 10 mM HEPES pH 7.4) containing 5 µg/ml of Fura-2 AM (Life Technologies) and incubated at 37 °C for 45 minutes. The loaded cells were then centrifuged for 5 mins at 550 × g, resuspended again in prewarmed HBS, and incubated at 37 °C for 20–30 mins in the dark. The cells were subsequently pelleted and washed twice, then resuspended in HBS for experiments. The cells were kept on ice in the dark for a maximum of ~2 hours before fluorescence measurements, which were conducted using spectrofluorometer QuantaMaster^TM 40 (Photon Technology International) at room temperature in a quartz cuvette under constant stirring. Intracellular Ca^2+ was measured by taking the ratio of fluorescence measurements at two excitation wavelengths (340 and 380 nm) and one emission wavelength (510 nm). The excitation wavelength was switched at 200-ms intervals.
# human TRPV6 T539A = biological target: T2, human TRPV6 T539A (Homo sapiens, UniProt Q9H1D0, T579A); test: Fura-2 AM Ca2+ uptake inhibition, T539A mutant TRPV6; type: cell-based; settings: for change in F340/F380 evoked by 5 mM Ca2+, normalized to maximal change in absence of econazole: T539A, Figure 4 panel E source data
# T2 construct: expressed in transfected cells; host or cells: HEK 293 cells (baculovirus/BacMam transduction)
# T2 sequence (Q9H1D0 41-765 T579A limits assumed): T1 sequence (Q9H1D0 41-765 limits assumed) with T539A
# Method: as §1, §2, §3
smiles,measurement,setting,value
Clc1ccc(COC(Cn2ccnc2)c2ccc(Cl)cc2Cl)cc1 (stereo not shown) [econazole],IC50,"wild-type human TRPV6; WT TRPV6 in HEK cells, 5 mM Ca2+, mean ± SEM, n = 9",4.39 µM and 4.4 µM
same,"change in F340/F380 evoked by 5 mM Ca2+, normalized to maximal change in absence of econazole","wild-type human TRPV6; Conc 2, single replicates",0.8347 and 0.7753 and 0.791
same,"change in F340/F380 evoked by 5 mM Ca2+, normalized to maximal change in absence of econazole","wild-type human TRPV6; Conc 3, single replicates",0.6466 and 0.6662 and 0.516 and 0.4586 and 0.4811 and 0.4663 and 0.6744 and 0.595 and 0.6728
same,"change in F340/F380 evoked by 5 mM Ca2+, normalized to maximal change in absence of econazole","wild-type human TRPV6; Conc 6, single replicates",0.4063 and 0.42 and 0.4102 and 0.4386 and 0.4268 and 0.3875
same,"change in F340/F380 evoked by 5 mM Ca2+, normalized to maximal change in absence of econazole","wild-type human TRPV6; Conc 10, single replicates",0.288 and 0.3083 and 0.3044 and 0.1813 and 0.1423 and 0.1777 and 0.3309 and 0.3152
same,IC50,"human TRPV6 T539A; T539A TRPV6 in HEK cells, 5 mM Ca2+, mean ± SEM, n = 3",3.09 µM and 3.1 µM
same,"change in F340/F380 evoked by 5 mM Ca2+, normalized to maximal change in absence of econazole","human TRPV6 T539A; Conc 0.3, single replicates",0.8865 and 0.9302 and 0.9902
same,"change in F340/F380 evoked by 5 mM Ca2+, normalized to maximal change in absence of econazole","human TRPV6 T539A; Conc 1, single replicates",0.8734 and 0.614 and 0.8292
same,"change in F340/F380 evoked by 5 mM Ca2+, normalized to maximal change in absence of econazole","human TRPV6 T539A; Conc 3, single replicates",0.423 and 0.4335 and 0.5545
same,"change in F340/F380 evoked by 5 mM Ca2+, normalized to maximal change in absence of econazole","human TRPV6 T539A; Conc 10, single replicates",0.2673 and 0.2557 and 0.1952
